# Source: PMC4783263 (Molecular pharmaceutics, 2016)
# Read-outs that look alike come from different tables or passages of the source.
# Columns and labels:
# [1] = tested on: Salmonella typhimurium TA1535; assay: Ames test; settings: TA 1535, −S9, 1.5 µg/plate
# [2] = tested on: Salmonella typhimurium TA100; assay: Ames test; settings: TA 100, −S9, 1.5 µg/plate
# [3] = in vivo; cited from earlier work
# [4] = mice, repeated oral dosing of 30–40 mg/kg/day for 4–90 days; cited from earlier work
# [5] = tested on: SKHEP-1 (human liver adenocarcinoma) xenografts; settings: ABZ in sesame oil, xenografts on the flank of mice; cited from earlier work
# SK-OV-3 cells = settings: read-out: IC50 on SK-OV-3 cells; ABZ formulated in ethanol; cited from earlier work
# [6] = tested on: OVCAR-3 (human ovarian adenocarcinoma); settings: 150 mg/kg of ABZ 3 times a week for 4 weeks through IP; cited from earlier work
# glioblastoma multiforme = settings: daily oral doses (50 and 150 mg/kg) of ABZ tablets mixed with 50% sesame oil; cited from earlier work
# [7] = design: species or system Swiss Webster mice; settings: mouse, in vivo; for AUC / Cmax / tmax: 3.2 mg/kg
# [8] = cited from earlier work
smiles,measurement,setting,value
"[N-]=[N+]=[N-].[Na+] [Sodium azide, Sodium Azide, reference compound]","revertant colonies, positive control",[1],Sodium azide 232 ± 6 colonies
same,"revertant colonies, positive control",[1]; listed as sodium azide,232 colonies
same,"revertant colonies, positive control",[2],Sodium azide 167 ± 34 colonies
same,"revertant colonies, positive control",[2]; listed as sodium azide,167 colonies
O=C(O)CCSC[C@H]1O[C@@H]2O[C@H]3[C@H](O)[C@@H](O)[C@@H](O[C@H]4[C@H](O)[C@@H](O)[C@@H](O[C@H]5[C@H](O)[C@@H](O)[C@@H](O[C@H]6[C@H](O)[C@@H](O)[C@@H](O[C@H]7[C@H](O)[C@@H](O)[C@@H](O[C@H]8[C@H](O)[C@@H](O)[C@@H](O[C@H]9[C@H](O)[C@@H](O)[C@@H](O[C@H]1[C@H](O)[C@H]2O)O[C@@H]9CSCCC(=O)O)O[C@@H]8CSCCC(=O)O)O[C@@H]7CSCCC(=O)O)O[C@@H]6CSCCC(=O)O)O[C@@H]5CSCCC(=O)O)O[C@@H]4CSCCC(=O)O)O[C@@H]3CSCCC(=O)O [sugammadex],effect on QT interval (in words),[3],no relevant effects of the compound on QT interval
"CCCSc1ccc2nc(NC(=O)OC)[nH]c2c1 [ABZ, Albendazole]",toxicity (in words),[4],no significant signs of toxicity
same,daily oral dose required to see an antitumor effect,[5],300 mg/kg
same,IC50,SK-OV-3 cells,3.88 µM
same,malignant ascites (in words),[6],suppression of malignant ascites was observed
same,mouse survival (in words),glioblastoma multiforme,moderate improvements in mouse survival
"CCCS(=O)(=O)c1ccc2nc(NC(=O)OC)[nH]c2c1 [ABZSO2, Albendazole sulfone]",Absolute Bioavailability,[7],81%
same,AUC,[7]; ip,2.38 µg·h/mL
same,Cmax,[7]; ip,0.41 ± 0.07 µg/mL
same,tmax,[7]; ip,2 h
same,AUC,[7]; iv,2.94 µg·h/mL
same,Cmax,[7]; iv,0.50 ± 0.09 µg/mL
same,tmax,[7]; iv,2 h
O=C1N2CN3C(=O)N4CN5C(=O)N6CN7C(=O)N8CN9C(=O)N%10CN%11C(=O)N%12CN%13C(=O)N%14CN1C1C2N2CN%15C(=O)N(CN%16C(=O)N(CN%17C(=O)N(CN%18C(=O)N(CN%19C(=O)N(CN%20C(=O)N(CN1C2=O)C%14C%13%20)C%12C%11%19)C%10C9%18)C8C7%17)C6C5%16)C4C3%15 (stereo not shown) [CB[7]],solubility in pure water,[8]; reported by Kim,20 to 30 mM
same,solubility in pure water,[8]; reported by Nau,5 mM
